Test results: PubChem BioAssay (NCI)
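A five-concentration, 48-hour dose response in 96-well plates underlies each endpoint, interpolated linearly between surrounding concentrations. The concentration for 50% growth inhibition is given as GI50. TGI is the concentration that stops growth completely.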

Key:
Experiment in all cases: DTP human tumour cell line panel, 48 h
[1] = system: 786-0 renal
[2] = system: A498 renal
[3] = system: A549 NSCLC
[4] = system: ACHN renal
[5] = system: BT-549 breast
[6] = system: CAKI-1 renal
[7] = system: CCRF-CEM leukemia
[8] = system: COLO 205 colon
[9] = system: DU-145 prostate
[10] = system: EKVX NSCLC
[11] = system: HCT-116 colon
[12] = system: HCT-15 colon
[13] = system: HL-60(TB) leukemia
[14] = system: HOP-62 NSCLC
[15] = system: HOP-92 NSCLC
[16] = system: HS 578T breast
[17] = system: HT29 colon
[18] = system: IGROV1 ovarian
[19] = system: K-562 leukemia
[20] = system: KM12 colon
[21] = system: LOX IMVI melanoma
[22] = system: M14 melanoma
[23] = system: MALME-3M melanoma
[24] = system: MCF7 breast
[25] = system: MDA-MB-231 breast
[26] = system: MDA-MB-435
[27] = system: MDA-N
[28] = system: MOLT-4 leukemia
[29] = system: NCI-H226 lung
[30] = system: NCI-H23 lung
[31] = system: NCI-H460 lung
[32] = system: NCI-H522 lung
[33] = system: NCI/ADR-RES ovarian
[34] = system: OVCAR-3 ovarian
[35] = system: OVCAR-4 ovarian
[36] = system: OVCAR-5 ovarian
[37] = system: OVCAR-8 ovarian
[38] = system: PC-3 prostate
[39] = system: RPMI-8226 leukemia
[40] = system: SF-268 CNS
[41] = system: SF-295 CNS
[42] = system: SF-539 CNS
[43] = system: SK-MEL-2 melanoma
[44] = system: SK-MEL-28 melanoma
[45] = system: SK-MEL-5 melanoma
[46] = system: SK-OV-3 ovarian
[47] = system: SN12C renal
[48] = system: SNB-19 CNS
[49] = system: SNB-75 CNS
[50] = system: SR leukemia
[51] = system: SW-620 colon
[52] = system: T-47D breast
[53] = system: U251 CNS
[54] = system: UACC-257 melanoma
[55] = system: UACC-62 melanoma
[56] = system: UO-31 renal

Q: For COc1ccc2nc3cc([N+](=O)[O-])ccc3c(NCCCCCN(C)C)c2c1, which GI50 [1] is on record?
A: 150 nM

Q: And the TGI [1]?
A: 1070 nM

Q: And the GI50 [2]?
A: 1070 nM

Q: What about the TGI [2] of the same molecule?
A: 2980 nM

Q: And the GI50 [3]?
A: 250 nM

Q: What about the TGI [3] of the same molecule?
A: 1150 nM

Q: And the GI50 [4]?
A: 592 nM

Q: What about the TGI [4] of the same molecule?
A: 7490 nM

Q: What about the GI50 [5] of the same molecule?
A: 1770 nM

Q: And the TGI [5]?
A: 3550 nM

Q: What about the GI50 [6] of the same molecule?
A: 306 nM

Q: And the TGI [6]?
A: 3040 nM

Q: And the GI50 [7]?
A: 295 nM

Q: And the TGI [7]?
A: 3090 nM

Q: And the GI50 [8]?
A: 241 nM

Q: And the TGI [8]?
A: 1680 nM

Q: What about the GI50 [9] of the same molecule?
A: 286 nM

Q: And the TGI [9]?
A: 11300 nM

Q: And the GI50 [10]?
A: 1590 nM

Q: What about the TGI [10] of the same molecule?
A: 7270 nM

Q: What about the GI50 [11] of the same molecule?
A: 45.3 nM

Q: What about the TGI [11] of the same molecule?
A: 1180 nM

Q: And the GI50 [12]?
A: 1310 nM

Q: And the GI50 [13]?
A: 140 nM

Q: And the TGI [13]?
A: 2520 nM

Q: What about the GI50 [14] of the same molecule?
A: 53.6 nM

Q: What about the TGI [14] of the same molecule?
A: 301 nM

Q: And the GI50 [15]?
A: 148 nM

Q: And the TGI [15]?
A: 490 nM

Q: What about the GI50 [16] of the same molecule?
A: 376 nM

Q: And the TGI [16]?
A: 4660 nM

Q: And the GI50 [17]?
A: 64.3 nM

Q: What about the TGI [17] of the same molecule?
A: 380 nM

Q: What about the GI50 [18] of the same molecule?
A: 370 nM

Q: What about the TGI [18] of the same molecule?
A: 2530 nM

Q: What about the GI50 [19] of the same molecule?
A: 25.5 nM

Q: What about the TGI [19] of the same molecule?
A: 353 nM

Q: And the GI50 [20]?
A: 207 nM

Q: What about the TGI [20] of the same molecule?
A: 618 nM

Q: And the GI50 [21]?
A: 279 nM

Q: What about the TGI [21] of the same molecule?
A: 1100 nM

Q: And the GI50 [22]?
A: 216 nM

Q: What about the TGI [22] of the same molecule?
A: 522 nM

Q: And the GI50 [23]?
A: 233 nM

Q: What about the TGI [23] of the same molecule?
A: 1030 nM

Q: What about the GI50 [24] of the same molecule?
A: 51.4 nM

Q: And the TGI [24]?
A: 1040 nM

Q: What about the GI50 [25] of the same molecule?
A: 249 nM

Q: What about the TGI [25] of the same molecule?
A: 1930 nM

Q: And the GI50 [26]?
A: 271 nM

Q: What about the TGI [26] of the same molecule?
A: 972 nM

Q: What about the GI50 [27] of the same molecule?
A: 438 nM

Q: What about the TGI [27] of the same molecule?
A: 1570 nM

Q: And the GI50 [28]?
A: 105 nM

Q: And the TGI [28]?
A: 1040 nM

Q: And the GI50 [29]?
A: 309 nM

Q: What about the TGI [29] of the same molecule?
A: 1680 nM

Q: And the GI50 [30]?
A: 250 nM

Q: What about the TGI [30] of the same molecule?
A: 1540 nM

Q: What about the GI50 [31] of the same molecule?
A: 81.5 nM

Q: And the TGI [31]?
A: 1030 nM

Q: What about the GI50 [32] of the same molecule?
A: 30 nM

Q: And the TGI [32]?
A: 90.7 nM

Q: And the GI50 [33]?
A: 2130 nM

Q: What about the TGI [33] of the same molecule?
A: 13500 nM

Q: And the GI50 [34]?
A: 1410 nM

Q: What about the TGI [34] of the same molecule?
A: 12100 nM

Q: What about the GI50 [35] of the same molecule?
A: 140 nM

Q: And the TGI [35]?
A: 546 nM

Q: What about the GI50 [36] of the same molecule?
A: 497 nM

Q: And the TGI [36]?
A: 3920 nM

Q: And the GI50 [37]?
A: 214 nM

Q: And the TGI [37]?
A: 1320 nM

Q: And the TGI [38]?
A: 1750 nM

Q: What about the GI50 [39] of the same molecule?
A: 74.1 nM

Q: And the TGI [39]?
A: 1250 nM

Q: What about the GI50 [40] of the same molecule?
A: 285 nM

Q: And the TGI [40]?
A: 2260 nM

Q: What about the GI50 [41] of the same molecule?
A: 353 nM

Q: What about the TGI [41] of the same molecule?
A: 2520 nM

Q: What about the GI50 [42] of the same molecule?
A: 319 nM

Q: And the TGI [42]?
A: 1660 nM

Q: What about the GI50 [43] of the same molecule?
A: 20.8 nM

Q: And the TGI [43]?
A: 214 nM

Q: What about the GI50 [44] of the same molecule?
A: 283 nM

Q: What about the TGI [44] of the same molecule?
A: 1180 nM

Q: What about the GI50 [45] of the same molecule?
A: 159 nM

Q: What about the TGI [45] of the same molecule?
A: 390 nM

Q: And the GI50 [46]?
A: 351 nM

Q: What about the TGI [46] of the same molecule?
A: 2360 nM

Q: And the GI50 [47]?
A: 179 nM

Q: What about the TGI [47] of the same molecule?
A: 631 nM

Q: What about the GI50 [48] of the same molecule?
A: 301 nM

Q: And the TGI [48]?
A: 1230 nM

Q: What about the GI50 [49] of the same molecule?
A: 247 nM

Q: And the TGI [49]?
A: 1100 nM

Q: And the GI50 [50]?
A: 159 nM

Q: What about the TGI [50] of the same molecule?
A: 14100 nM

Q: And the GI50 [51]?
A: 272 nM

Q: What about the TGI [51] of the same molecule?
A: 3000 nM

Q: What about the GI50 [52] of the same molecule?
A: 307 nM

Q: What about the TGI [52] of the same molecule?
A: 1730 nM

Q: What about the GI50 [53] of the same molecule?
A: 218 nM

Q: And the TGI [53]?
A: 2640 nM

Q: What about the GI50 [54] of the same molecule?
A: 1030 nM

Q: What about the TGI [54] of the same molecule?
A: 2660 nM

Q: And the GI50 [55]?
A: 231 nM

Q: What about the TGI [55] of the same molecule?
A: 740 nM

Q: And the GI50 [56]?
A: 819 nM

Q: What about the TGI [56] of the same molecule?
A: 3630 nM
